Reference: article PMC8196787, “Design and Pharmacodynamics of Recombinant Fungus Defensin NZL with Improved Activity against Staphylococcus hyicus In Vitro and In Vivo” (International Journal of Molecular Sciences, 2021)
≈ marks a conversion by molar mass, not a printed value. Positions of bridges follow the written chain, without caps; N, C: chain ends. Residues, ends and D or L forms follow the SMILES beside them.

Assays:
S. aureus ATCC 43300 = experiment: microbe, parasite or virus in culture; format: cell-based; settings: S. aureus ATCC 43300; microbroth dilution, MHB, 1 × 10^5 CFU/mL, 37 °C, 16–20 h, peptides 1–256 μg/mL, triplicate
Description: (§1) The microbroth dilution method was used to evaluate the MIC values of new derivative peptides. […] The MIC value was defined as the lowest concentration where no visible bacteria growth occurred after overnight incubation. CRO was used as the positive control. All assays were conducted in triplicate.

S. hyicus ACCC 61734 = experiment: microbe, parasite or virus in culture; format: cell-based; settings: S. hyicus ACCC 61734 (clinical strain); microbroth dilution, MHB, 37 °C, 16–20 h, triplicate
Description: as §1

[1] = test system: isolated S. hyicus (n = 207); settings: n = 207 isolates, Japan; cited from earlier work
From the text: Staphylococcus hyicus is one of the opportunistic and commensal pathogens which can cause acute infections to animals and humans. It was reported that exfoliative toxins-producing S. hyicus is primarily known as the most common causative agent of exudative epidermitis in pigs, which occurs typically as an acute skin lesions characterized by sebaceous exudation, exfoliation, and vesicle formation. This disease with prominent morbidity and mortality occurs worldwide, resulting in considerable economic losses in the swine industry. To date, piglets infected with S. hyicus are fr ...

Row | Compound | MIC (S. aureus ATCC 43300) [µg/mL] | MIC (S. hyicus ACCC 61734) [µg/mL] | Isolated S. hyicus resistant to the drug [1] [%]
1 | CC[C@H](C)[C@@H]1NC(=O)[C@H](CO)NC(=O)[C@H](CCCCN)NC(=O)[C@@H]2CSSC[C@@H](C(=O)N[C@@H](Cc3ccc(O)cc3)C(=O)O)NC(=O)[C@H](CCCCN)NC(=O)[C@@H]3CSSC[C@H](NC(=O)[C@H](CCC(N)=O)NC(=O)[C@H](CC(C)C)NC(=O)[C@H](CC(=O)O)NC(=O)[C@H](CC(=O)O)NC(=O)[C@H](CCC(=O)O)NC(=O)[C@H](CO)NC(=O)[C@H](Cc4c[nH]c5ccccc45)NC(=O)[C@@H]4CCCN4C(=O)CNC(=O)[C@H](CC(N)=O)NC(=O)[C@@H](NC(=O)CNC(=O)[C@H](Cc4ccccc4)NC(=O)CN)CSSC[C@H](NC(=O)[C@H](Cc4ccc(O)cc4)NC(=O)CNC(=O)CNC(=O)[C@H](CCCCN)NC(=O)[C@H](Cc4ccc(O)cc4)NC(=O)CNC(=O)[C@H](CCCCN)NC1=O)C(=O)N[C@@H](C)C(=O)N[C@@H](CCCNC(=N)N)C(=O)NCC(=O)NCC(=O)N[C@@H](Cc1ccccc1)C(=O)N[C@@H](C(C)C)C(=O)N3)C(=O)N[C@@H](Cc1c[nH]cn1)C(=O)N[C@@H](CC(N)=O)C(=O)N[C@@H](Cc1c[nH]cn1)C(=O)N2 [Peptide 7] (H-GFGCNGPWSEDDLQCHNHCKSIKGYKGGYCARGGFVCKCY-OH; disulfide 4-30, 15-37, 19-39; N-terminus and C-terminus assumed) | 2 (≈ 0.456 µM) | 4 (≈ 0.912 µM) | –
2 | CC[C@H](C)[C@@H]1NC(=O)[C@H](CO)NC(=O)[C@H](CCCCN)NC(=O)[C@@H]2CSSC[C@@H](C(=O)N[C@@H](Cc3ccc(O)cc3)C(=O)O)NC(=O)[C@H](CCCCN)NC(=O)[C@@H]3CSSC[C@H](NC(=O)[C@H](CCCNC(=N)N)NC(=O)[C@H]([C@@H](C)CC)NC(=O)[C@H](CC(=O)O)NC(=O)[C@H](CC(=O)O)NC(=O)[C@H](CCC(=O)O)NC(=O)[C@H](CO)NC(=O)[C@H](Cc4c[nH]c5ccccc45)NC(=O)[C@@H]4CCCN4C(=O)CNC(=O)[C@H](CC(N)=O)NC(=O)[C@@H](NC(=O)CNC(=O)[C@H](Cc4ccccc4)NC(=O)CN)CSSC[C@H](NC(=O)[C@H](Cc4ccc(O)cc4)NC(=O)CNC(=O)CNC(=O)[C@H](CCCCN)NC(=O)[C@H](Cc4ccc(O)cc4)NC(=O)CNC(=O)[C@H](CCCCN)NC1=O)C(=O)N[C@@H](C)C(=O)N[C@@H](CO)C(=O)N[C@@H](C)C(=O)NCC(=O)N[C@@H](Cc1ccccc1)C(=O)N[C@@H](C(C)C)C(=O)N3)C(=O)N[C@@H](Cc1c[nH]cn1)C(=O)N[C@@H](CC(N)=O)C(=O)N[C@@H](Cc1c[nH]cn1)C(=O)N2 [Peptide 8] (H-GFGCNGPWSEDDIRCHNHCKSIKGYKGGYCASAGFVCKCY-OH; disulfide 4-30, 15-37, 19-39; N-terminus and C-terminus assumed) | 64 (≈ 14.7 µM) | 128 (≈ 29.4 µM) | –
3 | CC[C@H](C)[C@@H]1NC(=O)[C@H](CO)NC(=O)[C@H](CCCCN)NC(=O)[C@@H]2CSSC[C@@H](C(=O)N[C@@H](Cc3ccc(O)cc3)C(=O)O)NC(=O)[C@H](CCCCN)NC(=O)[C@@H]3CSSC[C@H](NC(=O)[C@H](CCCCN)NC(=O)[C@H](CC(C)C)NC(=O)[C@H](CC(=O)O)NC(=O)[C@H](CC(=O)O)NC(=O)[C@H](CCC(=O)O)NC(=O)[C@H](CCC(N)=O)NC(=O)[C@H](Cc4c[nH]c5ccccc45)NC(=O)[C@@H]4CCCN4C(=O)CNC(=O)[C@H](CC(N)=O)NC(=O)[C@@H](NC(=O)CNC(=O)[C@H](Cc4ccccc4)NC(=O)CN)CSSC[C@H](NC(=O)[C@H](Cc4ccc(O)cc4)NC(=O)CNC(=O)CNC(=O)[C@H](CCCCN)NC(=O)[C@H](Cc4ccc(O)cc4)NC(=O)CNC(=O)[C@H](CCCCN)NC1=O)C(=O)N[C@@H](C)C(=O)N[C@@H](CO)C(=O)N[C@@H](C)C(=O)NCC(=O)N[C@@H](Cc1ccccc1)C(=O)N[C@@H](C(C)C)C(=O)N3)C(=O)N[C@@H](Cc1c[nH]cn1)C(=O)N[C@@H](CC(N)=O)C(=O)N[C@@H](Cc1c[nH]cn1)C(=O)N2 [Peptide 9] (H-GFGCNGPWQEDDLKCHNHCKSIKGYKGGYCASAGFVCKCY-OH; disulfide 4-30, 15-37, 19-39; N-terminus and C-terminus assumed) | 4 (≈ 0.915 µM) | 8 (≈ 1.83 µM) | –
4 | CC[C@H](C)[C@@H]1NC(=O)[C@H](CO)NC(=O)[C@H](CCCCN)NC(=O)[C@@H]2CSSC[C@@H](C(=O)N[C@@H](Cc3ccc(O)cc3)C(=O)O)NC(=O)[C@H](CCCCN)NC(=O)[C@@H]3CSSC[C@H](NC(=O)[C@H](CCC(N)=O)NC(=O)[C@H]([C@@H](C)CC)NC(=O)[C@H](CC(=O)O)NC(=O)[C@H](CC(=O)O)NC(=O)[C@H](CCC(=O)O)NC(=O)[C@H]([C@@H](C)O)NC(=O)[C@H](Cc4c[nH]c5ccccc45)NC(=O)[C@@H]4CCCN4C(=O)CNC(=O)[C@H](CC(N)=O)NC(=O)[C@@H](NC(=O)CNC(=O)[C@H](Cc4ccccc4)NC(=O)CN)CSSC[C@H](NC(=O)[C@H](Cc4ccc(O)cc4)NC(=O)CNC(=O)CNC(=O)[C@H](CCCCN)NC(=O)[C@H](Cc4ccc(O)cc4)NC(=O)CNC(=O)[C@H](CCCCN)NC1=O)C(=O)N[C@@H](C)C(=O)N[C@@H](CCCNC(=N)N)C(=O)NCC(=O)NCC(=O)N[C@@H](Cc1ccccc1)C(=O)N[C@@H](C(C)C)C(=O)N3)C(=O)N[C@@H](Cc1c[nH]cn1)C(=O)N[C@@H](CC(N)=O)C(=O)N[C@@H](Cc1c[nH]cn1)C(=O)N2 [Peptide 10] (H-GFGCNGPWTEDDIQCHNHCKSIKGYKGGYCARGGFVCKCY-OH; disulfide 4-30, 15-37, 19-39; N-terminus and C-terminus assumed) | >128 | >128 | –
5 | CC1(C)S[C@@H]2[C@H](NC(=O)[C@H](N)c3ccccc3)C(=O)N2[C@H]1C(=O)O [ampicillin] | – | – | 76.8
6 | O=C(N[C@H](CO)[C@H](O)c1ccc([N+](=O)[O-])cc1)C(Cl)Cl [chloramphenicol] | – | – | 24.2
7 | C[C@H]1c2cccc(O)c2C(=O)C2=C(O)[C@]3(O)C(=O)C(C(N)=O)=C(O)[C@@H](N(C)C)[C@@H]3[C@@H](O)[C@@H]21 [doxycycline] | – | – | 1.4
8 | CC[C@H]1OC(=O)[C@H](C)[C@@H](O[C@H]2C[C@@](C)(OC)[C@@H](O)[C@H](C)O2)[C@H](C)[C@@H](O[C@@H]2O[C@H](C)C[C@H](N(C)C)[C@H]2O)[C@](C)(O)C[C@@H](C)C(=O)[C@H](C)[C@@H](O)[C@]1(C)O [erythromycin] | – | – | 56
9 | NC[C@H]1O[C@H](O[C@H]2[C@H](O)[C@@H](O[C@H]3O[C@H](CO)[C@@H](O)[C@H](N)[C@H]3O)[C@H](N)C[C@@H]2N)[C@H](O)[C@@H](O)[C@@H]1O [kanamycin] | – | – | 19.8
10 | penicillin | – | – | 76.8
